# Experimental data: US20040087612A1, “Method of increasing lacrimal gland tearing by topical administration of tacrolimus” (priority 2002, published 2004)
# Test system: dogs with naturally occurring keratoconjunctivitis sicca
# Assay: Schirmer tear quantification in dogs treated topically with tacrolimus suspension
# Type: in vivo, dog
# Conditions: topical administration to the eye
# From the text: In the present invention, tacrolimus is typically administered topically as an aqueous ophthalmic suspension that can be in the form of drops or an ointment. While the particular mixture and efficacious concentration of tacrolimus can be varied, one such suspension used in the treatment of a number of dogs included the following: i) Approximately 0.02 percent weight/volume tacrolimus crystals, ii) Approximately 0.2 percent weight/volume hydroxypropyl methylcellulose, iii) Approximately 0.4 percent weight/volume lactose, and iv) Sterile, deionized water mixed with the first three ingredients in an amount sufficient to achieve the above-noted concentrations. The following examples illustrate the effectiveness of the treatment method of the present invention. Specifically, eleven different dogs of varying breeds and ages were treated using the above solution for treatment periods ranging from 20-84 days. The eleven dogs had naturally occurring keratoconjunctivitis sicca. The subject dogs received one drop of the above-described tacrolimus-based suspension topically in the eye, twice a day. Prior to therapy, tear production was measured using standard Schirmer tear quantification. Corneal fibrosis, vascularization and pigmentation were measured using slit lamp biomicroscopy and fundus reflection during indirect ophthalmoscopy. […]
smiles,measurement,value
"C=CC[C@@H]1/C=C(\C)C[C@H](C)C[C@H](OC)[C@H]2O[C@@](O)(C(=O)C(=O)N3CCCC[C@H]3C(=O)O[C@H](/C(C)=C/[C@@H]3CC[C@@H](O)[C@H](OC)C3)[C@H](C)[C@@H](O)CC1=O)[C@H](C)C[C@@H]2OC [tacrolimus, Tacrolimus]",effect on lacrimal gland tearing,increases lacrimal gland tearing
